# Measured values from patent US10730874B2 (Shire Human Genetic Therapies, Inc., priority 2018, dated 2020).
# Biological target: human activated kallikrein enzyme (plasma kallikrein) (Homo sapiens (Human), UniProt P03952)
# Assay: Inhibition of human activated plasma kallikrein, fluorogenic peptide substrate assay, 500 pM enzyme format
# Format: biochemical
# Details: 500 pM activated kallikrein enzyme, 300 uM Pro-Phe-Arg-7-amido-4-methylcoumarin substrate, 30 min preincubation, 10 min at RT; read-out: Primary Dose Response Assay: Average EC50
# Protocol: Example compounds were evaluated for inhibition of the human activated kallikrein enzyme in two formats of an assay employing a fluorogenic peptide substrate. In one assay format, the concentrations of reagents were as follows: 20 mM Tris pH 7.5, 1 mM EDTA, 150 mM sodium chloride, 0.1% PEG-400, 0.1% Triton X-100, 500 pM activated kallikrein enzyme, 300 uM Pro-Phe-Arg-7-amido-4-methylcoumarin substrate. Prior to reaction initiation with substrate, enzyme and inhibitors were preincubated for 30 min at RT. After initiation with substrate, reactions were incubated for 10 min at RT and fluorescence emission at 460 nm from 380 nm excitation measured with a microplate reader. In another assay format, the concentrations of reagents were as follows: 20 mM Tris pH 7.5, 1 mM EDTA, 150 mM sodium chloride, 0.1% PEG-400, 0.1% Triton X-100, 5 pM activated kallikrein enzyme, 300 uM Pro-Phe-Arg-7-amido-4-methylcoumarin substrate. Prior to reaction initiation with substrate, enzyme and inhibitors were preincubated for 30 min at RT. After initiation with substrate, reactions were incubated for 18 h at RT and fluorescence emission at 460 nm from 380 nm excitation measured with a microplate reader.
# Chain of human activated kallikrein enzyme (plasma kallikrein) (P03952 391-638): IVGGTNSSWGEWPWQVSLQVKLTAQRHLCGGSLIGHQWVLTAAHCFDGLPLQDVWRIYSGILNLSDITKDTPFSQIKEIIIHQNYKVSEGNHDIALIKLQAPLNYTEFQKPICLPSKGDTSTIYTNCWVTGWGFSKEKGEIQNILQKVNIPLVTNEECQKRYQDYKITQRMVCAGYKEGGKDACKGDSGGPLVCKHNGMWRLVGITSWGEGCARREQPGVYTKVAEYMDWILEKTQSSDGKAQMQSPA
# Chain of human activated kallikrein enzyme (plasma kallikrein) (P03952 20-390 partner): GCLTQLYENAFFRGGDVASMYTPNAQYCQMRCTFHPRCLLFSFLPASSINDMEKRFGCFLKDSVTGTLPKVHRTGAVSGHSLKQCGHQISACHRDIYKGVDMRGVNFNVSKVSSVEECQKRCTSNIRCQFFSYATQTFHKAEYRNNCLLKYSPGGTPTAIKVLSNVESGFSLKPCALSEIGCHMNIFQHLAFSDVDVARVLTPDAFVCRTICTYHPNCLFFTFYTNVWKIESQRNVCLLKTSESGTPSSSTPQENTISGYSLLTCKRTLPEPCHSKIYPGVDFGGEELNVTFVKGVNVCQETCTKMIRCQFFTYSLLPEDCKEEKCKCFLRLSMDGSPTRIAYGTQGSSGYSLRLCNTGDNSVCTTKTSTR
row,EC50 [nM],Compound
1,10 to 100,"COCc1c(C(=O)NCc2ncn3ccc(Cl)cc23)cnn1Cc1cn2cc(C3CC3)ccc2n1 [Example I-32, N-((7-chloroimidazo[1,5-a]pyridin-1-yl)methyl)-1-((6-cyclopropylimidazo[1,2-a]pyridin-2-yl)methyl)-5-(methoxymethyl)-1H-pyrazole-4-carboxamide]"
2,10 to 100,"Cc1ccc2nc(Cn3cc(C(=O)NCc4ncn5ccc(Cl)c(Cl)c45)cn3)cn2c1 [Example I-33, N-((7,8-dichloroimidazo[1,5-a]pyridin-1-yl)methyl)-1-((6-methylimidazo[1,2-a]pyridin-2-yl)methyl)-1H-pyrazole-4-carboxamide]"
3,10 to 100,"CCc1c(Cl)ccc2nc(Cn3cc(C(=O)NCc4ncn5ccc(Cl)cc45)cn3)cn12 [Example I-34, 1-((6-chloro-5-ethylimidazo[1,2-a]pyridin-2-yl)methyl)-N-((7-chloroimidazo[1,5-a]pyridin-1-yl)methyl)-1H-pyrazole-4-carboxamide]"
4,100 to 2000,"Cc1ccc2nc(Cn3cc(C(=O)NCc4ncn5ccc(Cl)c(C)c45)cn3)cn2c1 [Example I-35, N-((7-chloro-8-methylimidazo[1,5-a]pyridin-1-yl)methyl)-1-((6-methylimidazo[1,2-a]pyridin-2-yl)methyl)-1H-pyrazole-4-carboxamide]"
5,10 to 100,"O=C(NCc1ncn2ccc(Cl)cc12)c1cnn(Cc2cn3cc(Br)c(Cl)cc3n2)c1 [Example I-36, 1-((6-bromo-7-chloroimidazo[1,2-a]pyridin-2-yl)methyl)-N-((7-chloroimidazo[1,5-a]pyridin-1-yl)methyl)-1H-pyrazole-4-carboxamide]"
6,10 to 100,"O=C(NCc1ncn2ccc(Br)cc12)c1cnn(Cc2cn3cc(Br)c(Cl)cc3n2)c1 [Example I-37, 1-((6-bromo-7-chloroimidazo[1,2-a]pyridin-2-yl)methyl)-N-((7-bromoimidazo[1,5-a]pyridin-1-yl)methyl)-1H-pyrazole-4-carboxamide]"
7,10 to 100,"CC1(C)CC1c1ccn2cc(Cn3cc(C(=O)NCc4ncn5ccc(Cl)cc45)cn3)nc2c1 (stereo not shown) [Example I-41, N-((7-chloroimidazo[1,5-a]pyridin-1-yl)methyl)-1-((7-(2,2-dimethylcyclopropyl)imidazo[1,2-a]pyridin-2-yl)methyl)-1H-pyrazole-4-carboxamide]"
8,10 to 100,"CC(C)=Cc1ccn2cc(Cn3cc(C(=O)NCc4ncn5ccc(Cl)cc45)cn3)nc2c1 [Example I-42, N-((7-chloroimidazo[1,5-a]pyridin-1-yl)methyl)-1-((7-(2-methylprop-1-en-1-yl)imidazo[1,2-a]pyridin-2-yl)methyl)-1H-pyrazole-4-carboxamide]"
9,< 1,"CC1CC1c1ccc2nc(Cn3cc(C(=O)NCc4ncn5ccc(Br)cc45)cn3)cn2c1 (stereo not shown) [Example I-44, N-((7-bromoimidazo[1,5-a]pyridin-1-yl)methyl)-1-((6-(2-methylcyclopropyl)imidazo[1,2-a]pyridin-2-yl)methyl)-1H-pyrazole-4-carboxamide]"
10,1 to 10,"O=C(NCc1ncn2ccc(I)cc12)c1cnn(Cc2cn3cc(C4CC4)ccc3n2)c1 [Example I-45, 1-((6-cyclopropylimidazo[1,2-a]pyridin-2-yl)methyl)-N-((7-iodoimidazo[1,5-a]pyridin-1-yl)methyl)-1H-pyrazole-4-carboxamide]"
11,10 to 100,"CCc1cccc2nc(Cn3cc(C(=O)NCc4ncn5ccc(Cl)cc45)cn3)cn12 [Example I-46, N-((7-chloroimidazo[1,5-a]pyridin-1-yl)methyl)-1-((5-ethylimidazo[1,2-a]pyridin-2-yl)methyl)-1H-pyrazole-4-carboxamide]"
12,1 to 10,"C/C=C\c1ccc2nc(Cn3cc(C(=O)NCc4ncn5ccc(Cl)cc45)cn3)cn2c1 [Example I-47, (Z)—N-((7-chloroimidazo[1,5-a]pyridin-1-yl)methyl)-1-((6-(prop-1-en-1-yl)imidazo[1,2-a]pyridin-2-yl)methyl)-1H-pyrazole-4-carboxamide]"
13,100 to 2000,"O=C(NCc1ncn2ccc(C3CC3)cc12)c1cnn(Cc2cn3cc(C4CC4)ccc3n2)c1 [Example I-48, 1-((6-cyclopropylimidazo[1,2-a]pyridin-2-yl)methyl)-N-((7-cyclopropylimidazo[1,5-a]pyridin-1-yl)methyl)-1H-pyrazole-4-carboxamide]"
14,10 to 100,"CC1(C)CC1c1ccn2cc(Cn3cc(C(=O)NCc4ncn5ccc(Br)cc45)cn3)nc2c1 (stereo not shown) [Example I-49, N-((7-bromoimidazo[1,5-a]pyridin-1-yl)methyl)-1-((7-(2,2-dimethylcyclopropyl)imidazo[1,2-a]pyridin-2-yl)methyl)-1H-pyrazole-4-carboxamide]"
15,100 to 2000,"Nc1ccc2c(CNC(=O)c3cnn(Cc4cn5cc(C6CC6)ccc5n4)c3)ncn2c1 [Example I-53, N-((6-aminoimidazo[1,5-a]pyridin-1-yl)methyl)-1-((6-cyclopropylimidazo[1,2-a]pyridin-2-yl)methyl)-1H-pyrazole-4-carboxamide]"
16,10 to 100,"N#Cc1cccc2nc(Cn3cc(C(=O)NCc4ncn5ccc(Cl)cc45)cn3)cn12 [Example I-54, N-((7-chloroimidazo[1,5-a]pyridin-1-yl)methyl)-1-((5-cyanoimidazo[1,2-a]pyridin-2-yl)methyl)-1H-pyrazole-4-carboxamide]"
17,1 to 10,"O=C(NCc1ncn2ccc(Br)cc12)c1cnn(Cc2cc3cc(C4CC4)ccn3n2)c1 [Example I-56, N-((7-bromoimidazo[1,5-a]pyridin-1-yl)methyl)-1-((5-cyclopropylpyrazolo[1,5-a]pyridin-2-yl)methyl)-1H-pyrazole-4-carboxamide]"
18,1 to 10,"Cc1ccc2nc(Cn3cc(C(=O)NCc4ncn5c(N)cc(Cl)cc45)cn3)cn2c1 [Example I-58, N-((5-amino-7-chloroimidazo[1,5-a]pyridin-1-yl)methyl)-1-((6-methylimidazo[1,2-a]pyridin-2-yl)methyl)-1H-pyrazole-4-carboxamide]"
19,1 to 10,"O=C(NCc1ncn2ccc(Cl)cc12)c1cnn(Cc2cn3cc(C4CCC4)ccc3n2)c1 [Example I-61, N-((7-chloroimidazo[1,5-a]pyridin-1-yl)methyl)-1-((6-cyclobutylimidazo[1,2-a]pyridin-2-yl)methyl)-1H-pyrazole-4-carboxamide]"

row,Compound,EC50 [nM]
1,"O=C(NCc1ncn2ccc(Cl)cc12)c1cnc(Cc2cn3cc(C4CC4)ccc3n2)s1 [Example I-38, N-((7-chloroimidazo[1,5-a]pyridin-1-yl)methyl)-2-((6-cyclopropylimidazo[1,2-a]pyridin-2-yl)methyl)thiazole-5-carboxamide]",1 to 10
2,"O=C(NCc1ncn2ccc(Cl)cc12)c1cnn(Cc2cn3c(Cl)c(Br)ccc3n2)c1 [Example I-39, 1-((6-bromo-5-chloroimidazo[1,2-a]pyridin-2-yl)methyl)-N-((7-chloroimidazo[1,5-a]pyridin-1-yl)methyl)-1H-pyrazole-4-carboxamide]",1 to 10
3,"O=C(NCc1ncn2ccc(Br)cc12)c1cnn(Cc2cn3c(Cl)c(Br)ccc3n2)c1 [Example I-40, 1-((6-bromo-5-chloroimidazo[1,2-a]pyridin-2-yl)methyl)-N-((7-bromoimidazo[1,5-a]pyridin-1-yl)methyl)-1H-pyrazole-4-carboxamide]",< 1
4,"CC1CC1c1ccc2nc(Cn3cc(C(=O)NCc4ncn5ccc(Cl)cc45)cn3)cn2c1 (stereo not shown) [Example I-43, N-((7-chloroimidazo[1,5-a]pyridin-1-yl)methyl)-1-((6-(2-methylcyclopropyl)imidazo[1,2-a]pyridin-2-yl)methyl)-1H-pyrazole-4-carboxamide]",< 1
5,"O=C(NCc1ncn2ccc(Cl)cc12)c1nnc(Cc2cn3cc(C4CC4)ccc3n2)o1 [Example I-51, N-((7-chloroimidazo[1,5-a]pyridin-1-yl)methyl)-5-((6-cyclopropylimidazo[1,2-a]pyridin-2-yl)methyl)-1,3,4-oxadiazole-2-carboxamide]",< 1
6,"O=C(NCc1ncn2ccc(Br)cc12)c1nnc(Cc2cn3cc(C4CC4)ccc3n2)o1 [Example I-52, N-((7-bromoimidazo[1,5-a]pyridin-1-yl)methyl)-5-((6-cyclopropylimidazo[1,2-a]pyridin-2-yl)methyl)-1,3,4-oxadiazole-2-carboxamide]",< 1
7,"N#Cc1cccc2nc(Cn3cc(C(=O)NCc4ncn5ccc(Br)cc45)cn3)cn12 [Example I-55, N-((7-bromoimidazo[1,5-a]pyridin-1-yl)methyl)-1-((5-cyanoimidazo[1,2-a]pyridin-2-yl)methyl)-1H-pyrazole-4-carboxamide]",10 to 100
8,"O=C(NCc1ncn2ccc(Cl)cc12)c1cnn(Cc2cn3c(F)c(C4CC4)ccc3n2)c1 [Example I-59, N-((7-chloroimidazo[1,5-a]pyridin-1-yl)methyl)-1-((6-cyclopropyl-5-fluoroimidazo[1,2-a]pyridin-2-yl)methyl)-1H-pyrazole-4-carboxamide]",< 1
9,"O=C(NCc1ncn2ccc(Br)cc12)c1cnn(Cc2cn3c(F)c(C4CC4)ccc3n2)c1 [Example I-60, N-((7-bromoimidazo[1,5-a]pyridin-1-yl)methyl)-1-((6-cyclopropyl-5-fluoroimidazo[1,2-a]pyridin-2-yl)methyl)-1H-pyrazole-4-carboxamide]",< 1
